Data taken from patent publication US5366992A, “Benzoic acid substituted derivatives having cardiovascular activity” (Italfarmaco S.p.A., priority 1990, dated 1994).
Where a name gives a salt, the structure may show the parent alone.

What was measured:
[1] = system: noradrenaline-contracted rat aortha strip; assay: in vitro vasorelaxing activity, noradrenaline-contracted rat aortha strip; conditions: concentration inhibiting by 50% the contraction of noradrenaline-contracted rat aortha strip
Method: The in vitro vasorelaxing activity of the compounds of the present invention was evaluated in the test of the noradrenaline-contracted rat aortha strip. The test was carried out according to the procedure described by K. Murakami et al., Eur. J. Pharmacol., 141, 195, 1987. The IC50 values, i.e. the concentration of active substance, expressed in mol/1, inhibiting by 50% the aortha strip contraction, were evaluated.

[2] = system: Sprague Dawley anesthetized rats; assay: in vivo antianginal activity, Arg-vasopressin-induced coronaric spasm (T wave increase) in anesthetized rats; design: species or system Sprague Dawley rat; conditions: 3 mg/kg through gastric probe, one hour before i.v. Arg-vasopressin (1 I.U./kg)
Method: In vivo antianginal activity was evaluated in Sprague Dawley anesthetized rats of 350-400 g mean weight, according to the procedure by M. Leitold et al., Arzneim. Forsch. 36, 1454, 1986. The test was carried out by intravenously administering to the animal one I.U./kg (equivalent to 3 mg/kg) of Arg-vasoprexine inducing a choronaric spasm which can be reproduced and electrocardiographically evidenced by an increase in the T wave. The compounds of the invention were administered through a gastric probe at a dose of 3 mg/kg, one hour before administering Arg-vasoprexine.The antianginal effect was expressed as percent inhibition of the increase in T wave versus controls.

CC(=O)Oc1cccc(C(=O)NCCCCCO[N+](=O)[O-])c1 [3 B]
IC50 [1]: 1200 nM

CC(=O)Oc1ccccc1C(=O)NCCCCCO[N+](=O)[O-] [4 B]
IC50 [1]: 110 nM
% Inhibition of the increase in T waves versus controls [2]: 53%

CC(=O)Oc1ccccc1C(=O)OCCO[N+](=O)[O-] [8 B]
IC50 [1]: 13 nM
% Inhibition of the increase in T waves versus controls [2]: 61%

O=C(NCCO[N+](=O)[O-])c1ccccc1O [9 A]
IC50 [1]: 160 nM
% Inhibition of the increase in T waves versus controls [2]: 42%

CC(=O)Oc1cccc(C(=O)NCCO[N+](=O)[O-])c1 [Example 1, 3-Acetoxy-N-(2-nitroxyethyl)-benzamide]
IC50 [1]: 160 nM

CC(=O)Oc1ccc(C(=O)NCCO[N+](=O)[O-])cc1 [Example 2, 4-Acetoxy-N-(2-nitroxyethyl)-benzamide]
IC50 [1]: 2300 nM
% Inhibition of the increase in T waves versus controls [2]: 55%

O=C(NCCO[N+](=O)[O-])c1ccccc1OC(=O)C1CSCN1 (centres unmarked) [Example 9, N-(2-Nitroxyethyl)-2-[(4-thiazolidinyl)carbonyloxy]benzamide hydrochloride]
IC50 [1]: 540 nM
